Series [1] deals with T1, bovine thymus VDR (Bos taurus, UniProt Q28037).
T1 construct: commercially available kit of bovine thymus VDR; purchased Incstar (Stillwater, Minn.); host or cells: bovine thymus
T1 sequence (Q28037 1-426): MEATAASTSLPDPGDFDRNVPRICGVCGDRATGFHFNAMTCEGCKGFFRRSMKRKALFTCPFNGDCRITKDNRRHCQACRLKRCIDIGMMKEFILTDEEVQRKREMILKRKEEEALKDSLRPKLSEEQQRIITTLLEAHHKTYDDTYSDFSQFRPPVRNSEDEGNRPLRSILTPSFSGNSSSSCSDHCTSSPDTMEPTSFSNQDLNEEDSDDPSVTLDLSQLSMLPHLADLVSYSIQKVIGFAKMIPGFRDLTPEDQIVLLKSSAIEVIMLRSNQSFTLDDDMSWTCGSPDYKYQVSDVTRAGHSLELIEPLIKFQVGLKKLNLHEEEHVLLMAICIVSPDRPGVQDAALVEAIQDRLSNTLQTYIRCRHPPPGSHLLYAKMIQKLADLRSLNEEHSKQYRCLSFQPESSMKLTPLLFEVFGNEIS
Put plainly: Radioreceptor assay with bovine thymus VDR (Incstar), displacement of 3H-1α,25-(OH)2 D3. Format: binding. The source says: Purified 1α,24(S)-(OH)2 D2 was quantitated by photodiode array spectrophotometry and assayed in the radioreceptor assay.
The purified 1α,24(R)-(OH)2 D2 and 1α,24(S)-(OH)2 D2 epimers were quantitated by ultraviolet spectroscopy. The concentration of 1α,24(R)-(OH)2 D2 required to produce the same displacement of ^3 H-1α,25-(OH)2 D3 tracer from the receptor was 20 to 30 times that required for 1α,24(S)-(OH)2 D2, as shown in FIG. 4.
On the technique in general: Displacement assays read how much labelled ligand stays bound in the presence of the test substance.

The target in series [2] is T2, vitamin D serum binding protein (DBP) (Rattus norvegicus, UniProt P04276).
T2 sequence (P04276 17-476): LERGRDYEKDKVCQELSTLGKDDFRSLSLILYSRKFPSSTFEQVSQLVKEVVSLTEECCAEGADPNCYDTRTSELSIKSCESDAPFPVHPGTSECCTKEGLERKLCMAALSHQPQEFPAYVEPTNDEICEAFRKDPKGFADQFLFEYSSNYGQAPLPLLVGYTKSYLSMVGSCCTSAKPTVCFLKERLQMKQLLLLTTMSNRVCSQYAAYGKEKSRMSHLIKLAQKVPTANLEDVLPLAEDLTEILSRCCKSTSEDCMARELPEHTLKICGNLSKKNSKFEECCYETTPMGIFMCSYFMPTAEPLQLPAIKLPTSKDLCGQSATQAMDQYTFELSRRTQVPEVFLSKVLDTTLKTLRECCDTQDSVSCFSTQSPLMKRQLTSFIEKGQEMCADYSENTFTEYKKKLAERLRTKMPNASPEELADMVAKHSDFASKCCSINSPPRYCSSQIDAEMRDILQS
Kind of series: Binding to vitamin D serum binding protein in vitamin D deficient rat serum. From the text:
In addition, the weak binding by the DBP was indicative of more rapid clearance, allowing for low toxicity.

Series [3] can be described thus: Preventive treatment of bone mass loss in postmenopausal osteoporotic women. Format: in vivo, human. To be noted: at or above 1.0 μg/day, 24 to 36 months. The procedure:
A clinical study is conducted with postmenopausal osteoporotic out-patientshaving ages between 55 and 75 years. The study involves up to 120 patients randomly divided into three treatment groups and continues for 24 to 36 months. Two of the treatment groups receive constant dosages of 1α,24(S)-dihydroxy vitamin D2 (u.i.d.; two different dose levels at or above 1.0 μg/day) and the other group receives a matching placebo. All patients maintain a normal intake of dietary calcium (500 to 800 mg/day) and refrain from using calcium supplements. Efficacy is evaluated by pre-and post-treatment comparisons of the patient groups with regard to (a) total body calcium retention, and (b) radial and spinal bone mineral density as determined by dual-photon absorptiometry (DPA) or dual-energy x-ray absorptiometry (DEXA). Safety is evaluated by comparisons of urinary hydroxyproline excretion, serum and urine calcium levels, creatinine clearance, blood urea nitrogen, and other routine determinations.

The nature of series [4]: Prophylaxis of postmenopausal bone loss in healthy postmenopausal women. It is filed as in vivo, human. Here is the method:
A clinical study is conducted with healthy postmenopausal women having ages between 55 and 60 years. The study involves up to 80 patients randomly divided into two treatment groups, and continues for 24 to 36 months. One treatment group receives a constant dosage of 1α,24(S)-dihydroxy vitamin D2 (u.i.d.; a dose level at or above 1.0 μg/day) and the other receives a matching placebo. The study is conducted as indicated in Example 12 above.

The nature of series [5]: Hypocalcemia and metabolic bone disease in chronic hemodialysis patients. Format: in vivo, human. To be noted: greater than 3.0 μg/day, twelve months. Here is the method:
A twelve-month, double-blind, placebo-controlled clinical trial is conducted with thirty men and women with renal disease who are undergoing chronic hemodialysis. […] Efficacy is evaluated by pre- and post-treatment comparisons of the two patient groups with regard to (a) direct measurements of intestinal calcium absorption, (b) total body calcium retention, (c) radial and spinal bone mineral density, or (d) determinations of serum calcium. Safety is evaluated by regular monitoring of serum calcium.

The test system of series [6] is HL-60 promyelocytes. Put plainly: HL-60 cell differentiation assay. The note with it: dose-response; acid esterase, NBT reduction, thymidine incorporation. Format: cell-based. Here is the method: A dose-response study is conducted with 1α,24(S)-(OH)2 D2 in the HL-60 cell differentiation assay as described by DeLuca and Ostrom (DeLuca, H. F. and ostrem, V. K., Prog. Clin. Biol. Res., vol. 259, pp. 41-55 (1988)). In this study, 1α,25-(OH)2 D3 is used as a positive control and appropriate solvents are used as negative controls. The following variables are evaluated: nonspecific acid esterase activity, nitroblue tetrazolium (NBT) reduction, and thymidine incorporation.
A general note: Uptake of a labelled nucleoside into DNA is a usual measure of proliferation.

“Also recorded” adds a separate entry of the source.

As to `C=C1/C(=C\C=C2/CCC[C@]3(C)[C@@H]([C@H](C)/C=C/[C@@](C)(O)C(C)C)CC[C@@H]23)C[C@@H](O)C[C@@H]1O` [1α,24(S)-(OH)2 D2, 1α,24(S)-dihydroxy vitamin D2], in series [1] (bovine thymus VDR radioreceptor assay, read-out: Half-maximal binding (converted)), the IC50 is roughly 0.35 nM. In addition, the “Affinity for VDR relative to 1α,25-(OH)2 D3” value in series [1] (compared with 1α,25-(OH)2 D3) is listed as “two-fold less competitive; also recorded: two-fold lower affinity”. Further, the “Binding to the vitamin D serum binding protein relative to 1,25-(OH)2 D3” value in series [2] (compared with 1,25-(OH)2 D3) is recorded as “more weakly”. For the same compound, the “Binding affinity for the vitamin D serum binding protein” value in series [2] (in words) is on record as “relatively poor binding affinity”. In series [3], the “Incidence of hypercalcemia or hypercalciuria or other metabolic disturbance” value was “insignificant incidence”; the “Total body calcium, radial and spinal bone densities relative to placebo” value was “significantly higher”. Besides, the “Losses in total body calcium, radial or spinal bone densities relative to baseline” value in series [4] (at or above 1.0 μg/day, 24 to 36 months) is listed as “reduced losses”. Also, in series [4] (long-term administration at or above 1.0 μg/day), the Monitored safety parameters entry is recorded as “confirm the safety”. Also, in series [5], the Incidence of hypercalcemia entry was “insignificant incidence”; the “Intestinal calcium absorption (double-isotope technique)” value was “significantly increases”; the “Radial and spinal bone densities relative to baseline” value is “stable”; the Serum calcium levels entry was “normalized”. In addition, the “Total body calcium relative to baseline” value in series [5] is “stable values”. For the same compound, the “Promotion of differentiation of HL-60 promyelocytes to monocytes” value in series [6] is given as “potent activity”.

Source of the values: patent US5786348A, “Methods for preparation and use of 1α,24(S)-dihydroxy vitamin D2” (priority 1995, dated 1998).
